# Measurements published in paper PMC7735731, “Application of Magnetic Core–Shell Imprinted Nanoconjugates for the Analysis of Hordenine in Human Plasma-Preliminary Data on Pharmacokinetic Study after Oral Administration” (Journal of Agricultural and Food Chemistry, 2020).
# Values joined by “and” are separate entries in the source; they are usually repeats but may differ in a detail not shown here. Identical values can stand only once.
# Columns and labels:
# [1] = design: method as in PMID 25880244; conditions: rats, cited from earlier work
# [2] = Pharmacokinetic study in healthy volunteers after oral administration of hordenine-rich dietary supplement (plasma, mag-MIP d-SPE, LC-MS/MS); format: in vivo, human
# Description: Quantitative analysis was performed using an Agilent 1260 Infinity system (Agilent Technologies, Santa Clara, CA, United States, https://www.agilent.com), equipped with a degasser, an autosampler, and a binary pump coupled to a QTRAP 4000 hybrid triple quadrupole/linear ion trap mass spectrometer (AB Sciex, Framingham, MA, United States, https://sciex.com). The turbo ion spray source was operated in positive mode. The curtain gas, ion source gas 1, ion source gas 2, and collision gas (all high-purity nitrogen) were set at 345, 207, 276 kPa, and “high” instrument units (4.6 × 10^–5 Torr), respectively. The ion spray voltage and source temperature were 5000 V and 600 °C, respectively. The target compounds were analyzed in multiple reaction monitoring mode. The quantitative multiple reaction monitoring transitions, declustering potential (DP) and collision energy (CE) for hordenine and hordenine-d6 were (m/z) 166 > 121 (DP = 61 V, CE = 21 V) and 172 > 121 (DP = 66 V, CE = 19 V), respectively. […] The column was maintained at 40 °C at the flow rate of 0.5 mL/min. The mobile phases consisted of 20 mM aqueous ammonium acetate as eluent A and acetonitrile with 0.2% formic acid as eluent B. The gradient (% B) was as follows: 0 min 10%, 1 min 10%, 3 min 95%, and 5 min 95%. The reequilibration of the column to the initial conditions lasted 1.5 min.
# For the optimization of the d-SPE process, a mass of 5 mg of mag-MIP was transferred to an Eppendorf tube together with a volume of 300 μL of untreated plasma sample (or in the optimization process: sample diluted with water or sample pretreated with methanol (1:1, v/v)). A sample of plasma pretreated with methanol was centrifuged (10 000g, 5 min) prior to loading to mag-MIP together with 30 μL of IS (c = 50 μg/L). Next, the tube was put on the vortex to provide contact time with the sorbent for 5 min (in the optimization of loading time, the step lasted 5, 15, 30, or 60 min). Then, the supernatant, separated from the sorbent by an external magnetic field, was discarded and the washing step was carried out by applying water, 300 μL of ultrapure water for 0.5 min on the vortex (or in the optimization process, methanol–water 85:15 v/v). The supernatant was removed in the same manner as described above. Finally, the elution took place by adding 500 μL of 5% ammonium hydroxide in methanol. The elution time was set for 5 min (in the optimization process, the step lasted 5, 15, 30, or 60 min). The elution fraction was separated from the sorbent by the application of an external magnetic field. In each optimized step, the recoveries of hordenine were analyzed. The eluate was evaporated to dryness (40 °C, 5 min), reconstituted in a volume of 70 μL of 20% aqueous methanol, and an aliquot of 10 μL was injected into the LC–MS/MS. Each experiment was performed in triplicate. The recovery was calculated by comparing the mean area response of plasma sample spiked before and after extraction.
# Three healthy volunteers (men, aged 25–30 years) were enrolled in this study after obtaining written informed consent. All participants were nonsmokers with body weight no less than 50 kg and body mass index 25.7 ± 3.7 kg/m^2. Their body weights were 80 kg (two volunteers) and 105 kg (one volunteer). Subjects neither consumed alcohol nor received any medication for 2 weeks prior to the start of the study. Hordenine was administered orally in the morning with a dose of 100 mg (in starch capsules) after overnight fasting. Plasma samples of approximately 2 mL were collected (in vials containing di-potassium ethylene diaminetetraacetic acid as an anticoagulant) before and at 20, 30, 45, 60, 75, 90, 120, 180, and 240 min post-dose. After collection, plasma samples were centrifuged at 2000g for 15 min at room temperature and plasma samples were analyzed. […]
# [3] = Simple allometric scaling of rat t1/2 to human; conditions: from rat t1/2 4.6 ± 1.6 h with t1/2(Human) ∼ 4t1/2(Rat)
# Text: However, further studies are required.
# [4] = Stability of the analyte in the biological matrix (human plasma) and the extract; format: in vitro ADME; conditions: for stability in extract in the autosampler: 48 h, 4 °C; for stability after short-term storage at room temperature / stability after freeze–thaw cycles: human plasma; for stability after short-term storage at room temperature: 4 h, 21 ± 2 °C; for stability after freeze–thaw cycles: three cycles at −20 °C storage, 25 °C thawing
# Description: Selectivity was evaluated using six blank plasma samples, which were evaluated for interference from the matrix components in the determination of hordenine. The accuracy and precision of the method were determined within runs (n = 5) and between runs (n = 15, five replicate samples on three separate runs) using quality control (QC) samples (0.1, 25, and 40 μg/L). Accuracy was expressed as percent relative error of the spiked nominal value, whereas precision was expressed as relative standard deviation (RSD). The linearity range was set between 0.05 and 50 μg/L. Eight point calibration lines (n = 3) were constructed by plotting peak area ratios of each targeted analyte to an area of IS versus the nominal concentration of the analyte. LLOQ was selected to give the signal at least five times higher than the signal of blank samples and satisfactory results of accuracy and precision. LLOQ, QCs, and calibration standards were prepared on blank plasma. The matrix effect was evaluated by analyzing low and high QCs using plasma from six different lots and included hemolyzed and hyperlipidemic plasma samples. Matrix factor (MF) was determined by calculating the ratio of the peak area in the presence of matrix (blank plasma spiked with the analyte post extraction) to the peak area in the absence of matrix (pure solution of the analyte). Additionally, the coefficient of variation (CV) of the IS-normalized MF (expressed as the MF of analyte divided by the MF of IS) was presented. All stability studies were performed at low and high QCs. The autosampler stability was determined after 48 h of extract storage in an autosampler (4 ± 0.5 °C). The freeze and thaw stabilities were determined in a process of three freeze–thaw cycles at −20 ± 2 °C storage temperature and 25 ± 0.5 °C thawing temperature, at least 12 h after freezing. The short-term stability was determined after 4 h of storage at room temperature, 21 ± 2 °C. Carryover was studied by injecting blank plasma sample after calibration standard at 40 μg/L
# [5] = weak base; source not given; cited from earlier work
# [6] = four volunteers, 1 L of beer with hordenine content 6.30 ± 0.19 mg/L; cited from earlier work
# [7] = cited from earlier work
# [8] = Pharmacokinetic profile of hordenine in plasma after alcohol free beer consumption by one volunteer; format: in vivo, human
# Text: It is known that hordenine levels in plasma after beer consumption are low.[10] Thus, to verify the newly proposed analytical method as well as to reveal its applicability, the evaluation of hordenine pharmacokinetics profiles after beer consumption was also investigated. The results are presented in Supporting Information Section S2.
# Determination of pharmacokinetic profile after beer consumption
# In order to reveal the applicability of new analytical method, the comparative studies of hordenine pharmacokinetic after alcohol free beer consumption was performed. Firstly we confirmed the presence of hordenine in the beverage since no data on hordenine content in alcohol free beer exist. Then the volunteer consumed 0.5 L of beer within 5 min. The blood was collected 10 min., 20 min., 30 min., 45 min., 1 h, 2 h, 4 h, and 6 h after the beginning of beer […]
# Regarding alcohol free beer the hordenine content was 1.3 mg/L for Karmi Classic, 1.2 mg/L for Żywiec, 2.5 mg/L for Heineken zero, 2.3 mg/L for Lech. Thus, for further experiments Heineken zero was selected. […]
# distribution Vz/F 1810 L. We confirmed the results of Sommer et al. (2020) that the Cmax is too low to directly interact with D2 receptors. One of the explanation of the lower Cl/F and Vz/F than obtained for supplement can be higher bioavailability of hordenine form beer than supplements and/or non linear pharmacokinetics. Thus, further study are needed.
# Figure A. Mean plasma concentration-time profile of hordenine after beer consumption by one
# dopamine D2 receptor = target: dopamine D2 receptor; design: method as in PMID 28281694; conditions: cited from earlier work
# [9] = human plasma, single oral dose 100 mg hordenine, three healthy volunteers, mean
# [10] = male, human, plasma, single oral dose 100 mg hordenine, three healthy volunteers, mean
compound,measurement,setting,value
"CN(C)CCc1ccc(O)cc1 [hordenine, 4-(2-dimethylaminoethyl)phenol]",t1/2 (hordenine elimination),"[1]; oral administration, dose of 15 mg/kg",4.6 ± 1.6 h
same,bioavailability,[1],66.2%
same,AUCt,[2]; [9],1390 µg·min/L
same,AUCt norm (body weight normalized),[2]; [9],16.5 µg·min/L/kg
same,AUC∞,[2]; [9],1440 µg·min/L
same,AUC∞ norm (body weight normalized),[2]; [9],17.1 µg·min/L/kg
same,concentration at 1 h,"[2]; male, human, in vivo, plasma collected at 1 h after administration of 100 mg of hordenine, read-out: calculated concentration in test plasma",8.7 ng/mL
same,Cmax,[2]; [10],16.4 ng/mL
same,MRT inf,[2]; [10],1.88 h
same,MRT last,[2]; [10],1.7 h
same,Tmax,[2]; [10],1.08 h
same,CL/F,"[2]; male, human, plasma, single oral dose 100 mg hordenine, three healthy volunteers, mean, read-out: Cl/Fnorm (body weight normalized) (converted)",850 mL/min/kg
same,Vd/F,"[2]; male, human, plasma, single oral dose 100 mg hordenine, three healthy volunteers, mean, read-out: Vz/F (apparent distribution volume)",6000 L
same,Vd/F,"[2]; male, human, plasma, single oral dose 100 mg hordenine, three healthy volunteers, mean, read-out: Vz/Fnorm (body weight normalized)",66 L/kg
same,half-life,"[2]; male, human, plasma, single oral dose 100 mg hordenine, three healthy volunteers, mean, read-out: t1/2 (terminal half-life)",0.9 h
same,Cl/F (apparent plasma clearance),"[2]; single oral dose 100 mg hordenine, three healthy volunteers, mean",4700 ± 1700 L/h and 4700 L/h
same,estimated t1/2(Human) by allometric scaling,[3],1.15 ± 0.4 h
same,stability in extract in the autosampler,[4]; QC1 (0.1 μg/L),94%
same,stability in extract in the autosampler,[4]; QC3 (40 μg/L),110%
same,stability after short-term storage at room temperature,[4]; QC1 (0.1 μg/L),103%
same,stability after freeze–thaw cycles,[4]; QC1 (0.1 μg/L),108%
same,stability after short-term storage at room temperature,[4]; QC3 (40 μg/L),107%
same,stability after freeze–thaw cycles,[4]; QC3 (40 μg/L),104%
same,pKa of the strongest bases,[5],9.19
same,maximum plasma concentrations,[6],1.98 to 2.85 µg/L
same,blood–brain barrier crossing,[7],can cross the blood–brain barrier
same,apparent oral clearance (Cl/F),[8]; 0.5 L alcohol free beer (hordenine 2.5 mg/L),2320 L/h
same,time to reach Cmax,"[8]; 0.5 L alcohol free beer, from the beginning of beer consumption",25 min
same,Cmax,"[8]; human, plasma, oral, 1.25 mg, 0.5 L alcohol free beer (Heineken zero, hordenine 2.5 mg/L)",0.4 ng/mL
same,Vd/F,"[8]; human, plasma, oral, 1.25 mg, 0.5 L alcohol free beer (hordenine 2.5 mg/L), read-out: volume of distribution Vz/F",1810 L
same,EC50,dopamine D2 receptor,0.61 µg/mL
